# Where “and” joins values, the source holds several entries; their conditions need not be identical. Equal values may be shown once.
# Test system: 991263-137-R1-J2-PDC complex spheroid viability
# Assay: Anticancer human tumor 991263-137-R1-J2-PDC patient-derived colon adenocarcinoma cell line growth inhibition [POLQ]
# Settings: for viability, T/C: stronger effect = lower value; for IC50: curve of compound
# Method: Multicellular complex tumor spheroid response to Polymerase (POL) inhibitors (novobiocin, ART-558, RP6685) in combination with a variety of drugs and investigational agents in selected tumor cell lines
# The POL inhibitors (novobiocin, ART-558, and RP6685) were evaluated both individually and in combination with standard of care and investigational anticancer small molecules within a complex spheroid model of solid tumors. . Complex spheroids include a stromal component modeled by human endothelial cells (HUVEC) and fibroblasts modeled by human mesenchymal stem cells (MSCs). The concentration ranges selected for each drug and investigational agent were based upon clinically achievable concentrations if the clinical Cmax of the agent was known.
# Compounds. The drugs and investigational agents: novobiocin (NSC847541), ART-558 (NSC835418), RP-6685 (NSC848927), peposertib (NSC802822), ceralasertib (NSC780249), elimusertib (NSC800525), camonsertib (NSC841442), AZD-1390 (NSC803789), olaparib (NSC753686), talazoparib (NSC767125), rucaparib (NSC756644), sotorasib (NSC818433), MRTX-1133 (NSC836407), SN-38 (NSC673596), topotecan (NSC609699), epotoside (NSC141540), doxorubicin (NSC123127), gemcitabine (NSC613327), 5-fluorouracil (NSC19893), paclitaxel (NSC125973), vemurafenib (NSC761431), MSA-2 (NSC828583), SN-011 (NSC837082), adavosertib (NSC754352), prexasertib (NSC758257), carboplatin (NSC241240) and oxaliplatin (NSC266046), were obtained from the National Cancer Institute (NCI) Developmental Therapeutics Program Chemical Repository (21). The FDA-approved anticancer drug set is available from the Developmental Therapeutics Program at https://dtp.cancer.gov/organization/dscb/obtaining/. […] The stock solutions were prepared in dimethyl sulfoxide (DMSO, Sigma-Aldrich, St. Louis, MO, cat. D2650), except for the platinum compounds which were prepared in saline (Quality Biological, Gaithersburg, MD, cat. 114-055-101), at 800-fold the tested concentration and stored at -70 degrees C prior to their use. All drugs and investigational agents were tested over a range starting from a high concentration at or near the clinical Cmax and decreasing in half-log increments. If the clinical Cmax for an agent had not been determined, the highest concentration tested was 10 microM, except for SN-38, which was tested at a high concentration of 1 microM.
# Cell Culture. All cells were maintained in an incubator at 37 degrees C and 5% CO2 with 95% humidity. The PDC lines were cultured according to standard operating procedures established by the NCI PDMR (https://pdmr.cancer.gov). Table 3 of the manuscript, lists the cell lines along with the number of the three cell types plated to form the mct-spheroids and media for tumor cell growth. After thawing, all PDC lines, except 997537-175-T-J1-PDC and 415267-285-R-J2-PDC, were cultured in Matrigel-coated flasks prepared with a working solution of 1X Ham's F-12 nutrient mix, without supplementation (Thermo Fisher Scientific, cat. 11765054), 100 U/mL penicillin-streptomycin (Thermo Fisher Scientific, cat. 15140122), and 2.5% Matrigel (Corning Inc., Corning, NY, cat. 354248) for the first three passages. The two PDC lines 997537-175-T-J1-PDC and 415267-285-R-J2-PDC were cultured on uncoated flasks. The 857933-349-R-J2-PDC line was cultured in 6C/Colon 1B media containing advanced DMEM/F-12 (Thermo Fisher Scientific, cat. 12634028), 10 mM HEPES (Thermo Fisher Scientific, cat. 15630080), 1X GlutaMAX supplement (Thermo Fisher Scientific, cat. 35050061), 0.1 mg/mL primocin (InvivoGen, San Diego, CA, cat. ant-pm-2), 10% defined fetal bovine serum, heat inactivated (HyClone Laboratories Inc., Logan, UT, cat. SH30070.03HI), 50% L-WRN conditioned media (ATCC, cat. CRL-3276), 1.25 mM N-Acetyl-L-cysteine (Sigma-Aldrich, cat. A9165), 10 mM nicotinamide (Sigma-Aldrich, cat. N0636), 1X B-27 supplement (Thermo Fisher Scientific, cat. 17504044), 1X N-2 supplement (Thermo Fisher Scientific, cat. […]
# 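Further: spheroids exposed to compounds for 7 days before readout.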
# 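Wherever viability, T/C is given: 100% = DMSO vehicle control viability.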
SMILES,"viability, T/C (compound 0.0316 µM)","viability, T/C (compound 0.1 µM)","viability, T/C (compound 0.316 µM)","viability, T/C (compound 1 µM)","viability, T/C (compound 3.16 µM)","viability, T/C (compound 10 µM)",IC50
C#Cc1c(F)ccc2cc(O)cc(-c3ncc4c(N5CC6CCC(C5)N6)nc(OCC56CCCN5CC(F)C6)nc4c3F)c12 (centres undefined),111% and 87.6% and 112%,107% and 91.8% and 88.9%,104% (2×) and 103%,108% and 105% and 109%,96.9% and 116% (2×),104% and 99.7% and 82.3%,> 10 µM
C=CC(=O)N1CCN(c2nc(=O)n(-c3c(C)ccnc3C(C)C)c3nc(-c4c(O)cccc4F)c(F)cc23)C(C)C1 (centres undefined),119% and 99.2% and 102%,104% (2×) and 89.8%,107% and 105% and 103%,118% and 107% and 104%,–,104% and 108% and 110%,> 10 µM
CC(C)n1c(=O)n(C)c2cnc3cc(F)c(-c4ccc(OCCCN5CCCCC5)nc4)cc3c21,101% and 103% and 89.4%,103% and 104% and 95.9%,85.1% and 103% and 99.6%,110% and 121% and 129%,101% and 104% and 89.3%,–,> 10 µM
CC1COCCN1c1cc(-c2ccnn2C)c2ccnc(-c3ccn[nH]3)c2n1 (centres undefined),112% and 99.9% and 100%,86.5% and 89.2% and 93.4%,81.6% and 77.2% and 83%,52.1% and 41.8% and 54.8%,35.4% and 24% and 43.9%,28.9% and 25.4% and 31.9%,1.35 µM and 0.759 µM and 1.69 µM
CC1COCCN1c1cc(C2(O)CC3CCC(C2)O3)c2cnn(-c3ccn[nH]3)c2n1 (centres undefined),103% and 87.7% and 99%,95.7% and 94% and 86.5%,88.2% and 74.1% and 73.4%,56.8% and 58.5% and 54.9%,36.5% and 33.8% and 36.9%,30.4% and 26.9% and 29.3%,1.5 µM and 1.41 µM and 1.35 µM
CCc1cc2c(N3CCc4c(cc(Cn5ccnc5)cc4-c4cn(C)nc4C(F)(F)F)C3=O)cc(C)nc2c(OC)n1,107% and 96% and 92.8%,101% and 98.5% and 96.4%,–,–,97.9% and 96.1% and 96.5%,93.5% and 82.6% and 105%,> 10 µM
CCc1cc2c(N3CCc4c(cc(Cn5ccnc5)cc4-c4cn(C)nc4C(F)(F)F)C3=O)ccnc2c(OC)n1,95% and 111% and 105%,98.7% and 90.5% and 101%,94.4% and 103% and 99.7%,101% and 91.2% and 96.7%,91.8% and 97.7% and 83.7%,98.8% and 88.6% and 94.2%,> 10 µM
COc1cc2cc(C(=O)CCC(=O)O)sc2cc1OC,104% and 107% and 91.3%,85% and 96.5% and 104%,117% and 104% and 114%,–,–,74.1% and 83.3% and 78.4%,> 10 µM
COc1ccc([C@@H](O)c2cc(-c3ncnc4cc(N5CCOCC5)ccc34)c(F)cc2Cl)nn1,105% and 102% and 82.6%,84.6% and 103% and 79.1%,98.5% and 95.2% and 91.9%,87% and 97.5% and 103%,68% and 66.7% and 59.3%,28.5% and 31.4% and 28.6%,5.36 µM and 5.45 µM and 4.48 µM
O=C(Nc1ccc(O)c(NS(=O)(=O)c2ccc(F)cc2)c1)c1ccc(-c2ccccc2)cc1,101% (2×) and 109%,98.5% and 91.8% and 94.6%,113% and 109% and 100%,97.6% and 98.6% and 105%,96.9% and 88.3% and 105%,101% and 97.1% and 79.9%,> 10 µM

# From PubChem BioAssay AID1963828 (Molecular Pharmacology Branch, DTP, NCI, 2024)
